Experimental data as given in patent US12129488B2, “Production of brown adipocytes” (SOCIETE DES PRODUITS NESTLE S.A., priority 2018, dated 2024).

Legend:
paraxial mesoderm cells = test: Brown adipocyte differentiation of dissociated paraxial mesoderm cells in BAD1/BAD2 medium; assay type: cell-based, human; details: SB431542 included in BAD1 medium, 2D culture of dissociated paraxial mesoderm cells
Procedure: Proceeding from monolayer of pluripotent stem cells (PSC) to spherical culture (Sph) to primitive streak (PS) to paraxial mesoderm (PM). Cells are then dissociated and cultured in 2D in specific BAD1 medium that contains TGFβ signalling inhibitor, SB431542 which is an activin inhibitor. […] In a second step, cells are cultured in BAD2 medium allowing TGFβ signalling to be active as SB431542 is removed.
(§1) Brown adipocyte (BA) differentiation was accomplished using two sequential media formulations designated BAD1 and BAD2. BAs were derived by first dissociating the PM spheres into single-cell suspension. Briefly, PM spheres were removed from the suspension plates and allowed to gravity sediment in a conical tube. The medium was aspirated carefully and the spheres gently washed once with excess DPBS without calcium or magnesium. The spheres were allowed to settle and the DPBS aspirated. The spheres were resuspended in 5 mL of RT Accumax® (Innovative Cell Technologies, San Diego, CA) and placed on a single speed rotating mixer for 20-30 minutes until a single-cell suspension was achieved. The cells were subsequently filtered through a 100 μm filter (ThermoFisher, Waltham, MA) into a 50 mL conical tube, washed with DPBS and centrifuged at 200 g for 4 minutes at RT; the resulting supernatant was aspirated and the cells resuspended in BAD1 medium for counting using a haemocytometer. […]

UCP1 = UCP1 expression analysis (qPCR), long term versus short term SB431542 exposure during BA differentiation; assay type: cell-based, human; details: continued use of SB431542 instead of removal in BAD2 medium
Procedure: UCP1 expression analysis between long term (+SB) or short term (−SB) SB431542 exposure. Long term SB exposure includes SB431542 in the medium during the entire BA differentiation beginning immediately after plating dissociated paraxial mesoderm cells. Short term SB exposure includes SB431542 in the medium during only the first 8 days beginning immediately after plating dissociated paraxial mesoderm cells. Those samples marked “+FSK” received 10 μM Forskolin for 4 hours. Day numbers are the number of days after paraxial mesoderm differentiation. All samples are relative to iPSC using 18S rRNA as the endogenous control.
as §1, with “achieved.” for “achieved. The cells were subsequently filtered through a 100 μm filter (ThermoFisher, Waltham, MA) into a 50 mL conical tube, washed with DPBS and centrifuged at 200 g for 4 minutes at RT; the resulting supernatant was aspirated and the cells resuspended in BAD1 medium for counting using a haemocytometer.”

[1] = test system: human brown adipocytes (hiPSC derived BA cells); test: PET-SCAN imaging of labelled glucose in explanted devices from mice implanted with encapsulated human brown adipocytes; assay type: in vivo; details: mice implanted with brown adipocytes and injected with FSK vs not stimulated; three weeks post-implantation
Procedure: Two groups of mice were implanted with human brown adipocytes (hiPSC derived BA cells) produced by the methods of the present invention and encapsulated in a device subcutaneously. In one group, the mice were injected with forskolin (FSK) to stimulate the brown adipocytes. In the other group, the mice implanted with brown adipocytes were not stimulated by FSK. A control group of mice was implanted with an empty device. All groups were assessed after three weeks post-implantation for in vivo PET-SCAN imaging as well as ex vivo PET-SCAN imaging of the explanted device.

[2] = test system: human BA cells (hiPSC derived brown adipocytes); test: Calorimetric/respiration measurements in mice implanted with human BA cells after NE stimulation; assay type: in vivo; details: implanted with human BA cells vs empty devices, one week post-implantation
Procedure: Measures of respiration quotient (DeltaVO2) of mice implanted with human BA cells (IBAT) or empty devices (EMPTY) treated with Norepinephrine (NE) for 1 hour. The mice are either surgically depleted for endogenous murine BA tissue (BATr) or treated at thermo-neutrality to inactivate the endogenous murine BA tissue (Therm). Calorimetric analyses were performed on group of mice implanted with encapsulated human brown adipocytes or empty devices. One group of mice was depleted of endogenous murine BA tissue by surgery and another group was maintained at thermoneutrality for inactivation of the endogenous murine BA tissue. The two groups were implanted with either human BA cells (hiPSC derived brown adipocytes) or empty devices. After one week post-implantation, each group of mice was stimulated with Norepinephrine (NE) (BA stimulation) to assess uncoupled respiration increase. The four sub-groups were analysed for calorimetry measurements as a readout of the respiration index induced by human brown adipocytes.

NC(=O)c1ccc(-c2nc(-c3ccc4c(c3)OCO4)c(-c3ccccn3)[nH]2)cc1 [SB431542]
appearance of vascular endothelium and cardiac myocyte development from contaminating lateral plate mesoderm (paraxial mesoderm cells): reduces appearance of vascular endothelium and cardiac myocyte development | kinetics of differentiation and UCP1 induction and expression (UCP1): retards proper kinetics and perturbs proper UCP1 induction and expression

C=C[C@@]1(C)CC(=O)[C@]2(O)[C@@]3(C)[C@@H](O)CCC(C)(C)[C@@H]3[C@H](O)[C@H](OC(C)=O)[C@@]2(C)O1 [FSK, forskolin]
signal of labelled glucose, PET-SCAN imaging ex vivo [1]: increased signal of labelled glucose

NC[C@H](O)c1ccc(O)c(O)c1 [NE, Norepinephrine]
respiration index (calorimetry) ([2]; mice at thermoneutrality): slightly but not significantly improved | respiration index (calorimetry) ([2]; mice surgically depleted of endogenous murine BA tissue): significant increased respiration index
